{"source": "patent US20260285850A1", "about": "“SUBSTITUTED OXAZOLIDINONES AND IMIDAZOLINONES AS HERBICIDES” (FMC CORPORATION, priority 2023, published 2026)", "assay_type_in_all_cases": "in vivo", "key": {"[1]": {"system": "palmer (palmer amaranth, palmer pigweed, Amaranthus palmeri)", "experiment": "Test A postemergence application, visual injury rating 0-100", "procedure,_shortened": "(§1)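 Compounds formulated in a non-phytotoxic solvent with surfactant are sprayed onto soil of freshly planted loam-sand pots ahead of emergence, or onto emerged plants 2-10 cm tall. After a 10-day greenhouse period, each species is scored visually for injury against untreated controls.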"}, "kochia (Bassia scoparia) [2]": {"system": "kochia (Bassia scoparia)", "experiment": "Test A postemergence application, visual injury rating 0-100", "procedure,_shortened": "as §1"}, "[3]": {"system": "blackgrass (Alopecurus myosuroides)", "experiment": "Test A postemergence application, visual injury rating 0-100", "procedure,_shortened": "as §1"}, "[4]": {"system": "green foxtail (Setaria viridis)", "experiment": "Test A postemergence application, visual injury rating 0-100", "procedure,_shortened": "as §1"}, "[5]": {"system": "ryegrass, Italian (italian ryegrass, Lolium multiflorum)", "experiment": "Test A postemergence application, visual injury rating 0-100", "procedure,_shortened": "as §1"}, "[6]": {"system": "oat, wild (wild oat, Avena fatua)", "experiment": "Test A postemergence application, visual injury rating 0-100", "procedure,_shortened": "as §1"}, "[7]": {"system": "horseweed (Erigeron canadensis)", "experiment": "Test A postemergence application, visual injury rating 0-100", "procedure,_shortened": "as §1"}, "soybean (Glycine max) [8]": {"system": "soybean (Glycine max)", "experiment": "Test A postemergence application, visual injury rating 0-100", "procedure,_shortened": "as §1"}, "[9]": {"system": "wheat (Triticum aestivum)", "experiment": "Test A postemergence application, visual injury rating 0-100", "procedure,_shortened": "as §1"}, "corn (Zea mays) [10]": {"system": "corn (Zea mays)", "experiment": "Test A postemergence application, visual injury rating 0-100", "procedure,_shortened": "as §1"}, "[11]": {"system": "barnyardgrass (Echinochloa crus-galli)", "experiment": "Test A postemergence application, visual injury rating 0-100", "procedure,_shortened": "as §1"}, "[12]": {"system": "ragweed (common ragweed, Ambrosia artemisiifolia)", "experiment": "Test A postemergence application, visual injury rating 0-100", "procedure,_shortened": "as §1"}, "[13]": {"system": "sedge, umbrella (small-flower umbrella sedge, Cyperus difformis)", "experiment": "Test B flooded paddy test, visual plant response rating 0-100", "details": "250 g ai/ha, Flood, applied to paddy water, evaluated after 13 days", "procedure,_shortened": "(§2)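 Compounds applied to standing paddy water (3 cm above soil, maintained for the test duration) on 2-leaf-stage plants; visual rating vs controls at 13 days, greenhouse.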"}, "[14]": {"system": "barnyardgrass (Echinochloa crusgalli)", "experiment": "Test B flooded paddy test, visual plant response rating 0-100", "details": "250 g ai/ha, Flood, applied to paddy water, evaluated after 13 days", "procedure,_shortened": "as §2"}, "rice (Oryza sativa)": {"system": "rice (Oryza sativa)", "experiment": "Test B flooded paddy test, visual plant response rating 0-100", "details": "250 g ai/ha, Flood, applied to paddy water, evaluated after 13 days", "procedure,_shortened": "as §2"}, "[15]": {"system": "ducksalad (Heteranthera limosa)", "experiment": "Test B flooded paddy test, visual plant response rating 0-100", "details": "250 g ai/ha, Flood, applied to paddy water, evaluated after 13 days", "procedure,_shortened": "as §2"}, "[16]": {"system": "palmer (palmer amaranth, palmer pigweed, Amaranthus palmeri)", "experiment": "Test A preemergence soil spray, visual injury rating 0-100", "details": "10 days", "procedure,_shortened": "as §1"}, "kochia (Bassia scoparia) [17]": {"system": "kochia (Bassia scoparia)", "experiment": "Test A preemergence soil spray, visual injury rating 0-100", "details": "10 days", "procedure,_shortened": "as §1"}, "[18]": {"system": "blackgrass (Alopecurus myosuroides)", "experiment": "Test A preemergence soil spray, visual injury rating 0-100", "details": "10 days", "procedure,_shortened": "as §1"}, "[19]": {"system": "green foxtail (Setaria viridis)", "experiment": "Test A preemergence soil spray, visual injury rating 0-100", "details": "10 days", "procedure,_shortened": "as §1"}, "[20]": {"system": "ryegrass, Italian (italian ryegrass, Lolium multiflorum)", "experiment": "Test A preemergence soil spray, visual injury rating 0-100", "details": "10 days", "procedure,_shortened": "as §1"}, "[21]": {"system": "oat, wild (wild oat, Avena fatua)", "experiment": "Test A preemergence soil spray, visual injury rating 0-100", "details": "10 days", "procedure,_shortened": "as §1"}, "soybean (Glycine max) [22]": {"system": "soybean (Glycine max)", "experiment": "Test A preemergence soil spray, visual injury rating 0-100", "details": "10 days", "procedure,_shortened": "as §1"}, "[23]": {"system": "wheat (Triticum aestivum)", "experiment": "Test A preemergence soil spray, visual injury rating 0-100", "details": "10 days", "procedure,_shortened": "as §1"}, "corn (Zea mays) [24]": {"system": "corn (Zea mays)", "experiment": "Test A preemergence soil spray, visual injury rating 0-100", "details": "10 days", "procedure,_shortened": "as §1"}, "[25]": {"system": "barnyardgrass (Echinochloa crus-galli)", "experiment": "Test A preemergence soil spray, visual injury rating 0-100", "details": "10 days", "procedure,_shortened": "as §1"}, "[26]": {"system": "ragweed (common ragweed, Ambrosia artemisiifolia)", "experiment": "Test A preemergence soil spray, visual injury rating 0-100", "details": "10 days", "procedure,_shortened": "as §1"}, "[27]": {"details": "62 g ai/ha, postemergence, 10 days, 0 = no effect, 100 = complete control"}, "[28]": {"details": "Postemergence, 16 g ai/ha, greenhouse 10 days, 0 no effect, 100 complete control"}, "[29]": {"details": "62 g ai/ha, 0 = no effect, 100 = complete control"}}}
{"smiles": "CC1(C(=O)NC2C=CC(C(=O)NO)C2)CN(c2cc(F)cc(F)c2)C(=O)O1", "note": "(centres unmarked) [Compound 137]", "values": [{"measurement": "Pigweed, Palmer plant response rating (0-100)", "setting": "[1]; [27]", "result": 30}, {"measurement": "Pigweed, Palmer plant response rating (0 to 100 scale)", "setting": "[1]; [28]", "result": 0}, {"measurement": "Kochia plant response rating (0-100)", "setting": "kochia (Bassia scoparia) [2]; [27]", "result": 50}, {"measurement": "Kochia plant response rating (0 to 100 scale)", "setting": "kochia (Bassia scoparia) [2]; [28]", "result": 0}, {"measurement": "Blackgrass plant response rating (0-100)", "setting": "[3]; [27]", "result": 60}, {"measurement": "Blackgrass plant response rating (0 to 100 scale)", "setting": "[3]; [28]", "result": 0}, {"measurement": "Foxtail, Green plant response rating (0-100)", "setting": "[4]; [27]", "result": 10}, {"measurement": "Foxtail, Green plant response rating (0 to 100 scale)", "setting": "[4]; [28]", "result": 0}, {"measurement": "Ryegrass, Italian plant response rating (0-100)", "setting": "[5]; [27]", "result": 30}, {"measurement": "Ryegrass, Italian plant response rating (0 to 100 scale)", "setting": "[5]; [28]", "result": 0}, {"measurement": "Oat, Wild plant response rating (0-100)", "setting": "[6]; [27]", "result": 30}, {"measurement": "Oat, Wild plant response rating (0 to 100 scale)", "setting": "[6]; [28]", "result": 0}, {"measurement": "Horseweed plant response rating (0-100)", "setting": "[7]; [27]", "result": 50}, {"measurement": "Horseweed plant response rating (0 to 100 scale)", "setting": "[7]; [28]", "result": 0}, {"measurement": "Soybean plant response rating (0-100)", "setting": "soybean (Glycine max) [8]; [27]", "result": 60}, {"measurement": "Soybean plant response rating (0 to 100 scale)", "setting": "soybean (Glycine max) [8]; [28]", "result": 0}, {"measurement": "Wheat plant response rating (0-100)", "setting": "[9]; [27]", "result": 70}, {"measurement": "Wheat plant response rating (0 to 100 scale)", "setting": "[9]; [28]", "result": 0}, {"measurement": "Corn plant response rating (0-100)", "setting": "corn (Zea mays) [10]; [27]", "result": 50}, {"measurement": "Corn plant response rating (0 to 100 scale)", "setting": "corn (Zea mays) [10]; [28]", "result": 10}, {"measurement": "Barnyardgrass plant response rating (0-100)", "setting": "[11]; [27]", "result": 70}, {"measurement": "Barnyardgrass plant response rating (0 to 100 scale)", "setting": "[11]; [28]", "result": 0}, {"measurement": "Ragweed plant response rating (0-100)", "setting": "[12]; [27]", "result": 0}, {"measurement": "Ragweed plant response rating (0 to 100 scale)", "setting": "[12]; [28]", "result": 0}, {"measurement": "Plant response rating, Sedge, Umbrella (0 to 100 scale, 0 is no effect and 100 is complete control)", "setting": "[13]", "result": 0}, {"measurement": "Plant response rating, Barnyardgrass (0 to 100 scale, 0 is no effect and 100 is complete control)", "setting": "[14]", "result": 0}, {"measurement": "Plant response rating, Rice (0 to 100 scale, 0 is no effect and 100 is complete control)", "setting": "rice (Oryza sativa)", "result": 0}, {"measurement": "Plant response rating, Ducksalad (0 to 100 scale, 0 is no effect and 100 is complete control)", "setting": "[15]", "result": 0}, {"measurement": "Pigweed, Palmer plant response rating", "setting": "[16]; 16 g ai/ha, 0 to 100 scale", "result": 20}, {"measurement": "Pigweed, Palmer plant response rating (0-100)", "setting": "[16]; [29]", "result": 70}, {"measurement": "Kochia plant response rating", "setting": "kochia (Bassia scoparia) [17]; 16 g ai/ha, 0 to 100 scale", "result": 0}, {"measurement": "Kochia plant response rating (0-100)", "setting": "kochia (Bassia scoparia) [17]; [29]", "result": 90}, {"measurement": "Blackgrass plant response rating", "setting": "[18]; 16 g ai/ha, 0 to 100 scale", "result": 0}, {"measurement": "Blackgrass plant response rating (0-100)", "setting": "[18]; [29]", "result": 50}, {"measurement": "Foxtail, Green plant response rating", "setting": "[19]; 16 g ai/ha, 0 to 100 scale", "result": 0}, {"measurement": "Foxtail, Green plant response rating (0-100)", "setting": "[19]; [29]", "result": 30}, {"measurement": "Ryegrass, Italian plant response rating", "setting": "[20]; 16 g ai/ha, 0 to 100 scale", "result": 30}, {"measurement": "Ryegrass, Italian plant response rating (0-100)", "setting": "[20]; [29]", "result": 60}, {"measurement": "Oat, Wild plant response rating", "setting": "[21]; 16 g ai/ha, 0 to 100 scale", "result": 0}, {"measurement": "Oat, Wild plant response rating (0-100)", "setting": "[21]; [29]", "result": 30}, {"measurement": "Soybean plant response rating", "setting": "soybean (Glycine max) [22]; 16 g ai/ha, 0 to 100 scale", "result": 0}, {"measurement": "Soybean plant response rating (0-100)", "setting": "soybean (Glycine max) [22]; [29]", "result": 50}, {"measurement": "Wheat plant response rating", "setting": "[23]; 16 g ai/ha, 0 to 100 scale", "result": 20}, {"measurement": "Wheat plant response rating (0-100)", "setting": "[23]; [29]", "result": 90}, {"measurement": "Corn plant response rating", "setting": "corn (Zea mays) [24]; 16 g ai/ha, 0 to 100 scale", "result": 0}, {"measurement": "Corn plant response rating (0-100)", "setting": "corn (Zea mays) [24]; [29]", "result": 10}, {"measurement": "Barnyardgrass plant response rating", "setting": "[25]; 16 g ai/ha, 0 to 100 scale", "result": 0}, {"measurement": "Barnyardgrass plant response rating (0-100)", "setting": "[25]; [29]", "result": 60}, {"measurement": "Ragweed plant response rating", "setting": "[26]; 16 g ai/ha, 0 to 100 scale", "result": 0}, {"measurement": "Ragweed plant response rating (0-100)", "setting": "[26]; [29]", "result": 0}]}
